These are literature values, as cited in patent US5520931A (Gacell Laboratories AB, priority 1992, dated 1996).

The structures appear in SMILES notation.

The data set relates to cancer pain. As to conditions: severe pain, WHO programme.

On to `CN1CC[C@]23c4c5ccc(O)c4O[C@H]2[C@@H](O)C=C[C@H]3[C@H]1C5` [morphine], for which the “efficacy and acceptability in advanced cancer pain” value is “both efficacious and acceptable”.
